Drawing on ChEMBL document CHEMBL4814027, “Synthesis and biological evaluation of naphthoquinone phenacylimidazolium derivatives” (Bioorg Med Chem Lett, 2021), this text covers IC50 and selectivity ratio for 27 molecules.

In general, IC50 refers to the concentration that gives 50% inhibition.

Data set [1] relates to MCF7. Briefly: Cytotoxicity against human MCF7 cells by MTT assay. Type of data set: functional, cell-based. For orientation: Tetrazolium assays rely on reduction of a dye to a coloured formazan, in cell work by metabolically active cells.
Data set [2] can be described thus: Selectivity ratio of IC50 for mouse L929 cells to IC50 for human MCF7 cells. Conditions: L929 cells versus MCF7 cells, read-out: Ratio IC50. Type of data set: toxicity.
The subject of data set [3] is L929. Briefly: Cytotoxicity against mouse L929 cells by MTT assay.
Data set [4] deals with A549. Briefly: Cytotoxicity against human A549 cells by MTT assay.
Data set [5] in a line: Selectivity ratio of IC50 for mouse L929 cells to IC50 for human A549 cells. It counts as toxicity. Conditions: L929 cells versus A549 cells, read-out: Ratio IC50.
The nature of data set [6]: Selectivity ratio of IC50 for mouse L929 cells to IC50 for human HeLa cells. It counts as toxicity. Conditions: L929 cells versus HeLa cells, read-out: Ratio IC50.
Data set [7] has as its system HeLa. In words: Cytotoxicity against human HeLa cells by MTT assay. Type of data set: functional, cell-based.

With `CC(C)Cn1c[n+](CC(=O)c2ccc(C(F)(F)F)cc2)c2c1C(=O)c1ccccc1C2=O`, the concentration for half-maximal inhibition (IC50) in data set [1] turned out to be 7.6 µM; in data set [3], 26.3 µM; in data set [4], 7.8 µM; in data set [7], 9.2 µM. The results for the selectivity ratio in data set [2], in data set [5] and in data set [6] were 3.46, 3.37 and 2.86, respectively.
As to `Cn1c[n+](CC(=O)c2ccc(Cl)cc2)c2c1C(=O)c1ccccc1C2=O`, the concentration for half-maximal inhibition (IC50) in data set [1] turned out to be 4.9 µM; in data set [3] it was 14.2 µM; in data set [4], 1 µM; in data set [7], 6.6 µM. Besides, the selectivity ratio in data set [2] worked out at 2.9; in data set [5] it was 14.2; in data set [6] it was 2.15.
In the case of `CCn1c[n+](CC(=O)c2ccc([N+](=O)[O-])cc2)c2c1C(=O)c1ccccc1C2=O`, the 50% inhibitory concentration (IC50) in data set [1] was 16.7 µM; in data set [3] it was 27.7 µM; in data set [4], 2.1 µM; in data set [7] it was 8.8 µM. Moreover, the selectivity ratio in data set [2] came to 1.66; in data set [5], 13.2; in data set [6] it was 3.15.
Turning to `CC(C)Cn1c[n+](CC(=O)c2cccc([N+](=O)[O-])c2)c2c1C(=O)c1ccccc1C2=O`, the IC50 in data set [1] turned out to be 2.8 µM; in data set [3], 16.2 µM; in data set [4], 2.9 µM; in data set [7] it was 4.2 µM. Further, the selectivity ratio in data set [2] was determined as 5.79; in data set [5], 5.59; in data set [6] it was 3.86.
For the molecule `CC(C)Cn1c[n+](CC(=O)c2ccccc2[N+](=O)[O-])c2c1C(=O)c1ccccc1C2=O`, the IC50 in data set [1] was 55.4 µM; in data set [3], 133 µM; in data set [4] it was 35.2 µM; in data set [7], 73.6 µM. The selectivity ratio in data set [2] turned out to be 2.4; in data set [5], 3.78; in data set [6] it was 1.81.
With `Cn1c[n+](CC(=O)c2ccc3ccccc3c2)c2c1C(=O)c1ccccc1C2=O`, the IC50 in data set [1] came out at 10.5 µM; in data set [3], 19 µM; in data set [4], 1.4 µM; in data set [7], 6.1 µM. The selectivity ratio in data set [2] was determined as 1.81; in data set [5], 13.6; in data set [6], 3.11.
Turning to `COCCn1c[n+](CC(=O)c2ccc([N+](=O)[O-])cc2)c2c1C(=O)c1ccccc1C2=O`, the IC50 was determined as 18.9 µM in data set [1], 41.3 µM in data set [3], 2.9 µM in data set [4] and 7.8 µM in data set [7]. Further, the selectivity ratio was determined as 2.19 in data set [2], 14.2 in data set [5] and 5.29 in data set [6].
For `CCCn1c[n+](CC(=O)c2ccc([N+](=O)[O-])cc2)c2c1C(=O)c1ccccc1C2=O`, the IC50 in data set [1] is 8.3 µM; in data set [3] it was 24.2 µM; in data set [4], 3 µM; in data set [7], 8.4 µM. Besides, the selectivity ratio in data set [2] came out at 2.92; in data set [5], 8.07; in data set [6], 2.88.
Consider `C#CCn1c[n+](CC(=O)c2ccc([N+](=O)[O-])cc2)c2c1C(=O)c1ccccc1C2=O`, for which the IC50 in data set [1] was determined as 40.9 µM; in data set [3], 19 µM; in data set [4] it was 15.1 µM; in data set [7], 17.2 µM. Further, the selectivity ratio worked out at 0.46 in data set [2], 1.26 in data set [5] and 1.1 in data set [6].
With `Cn1c[n+](CC(=O)c2ccc(F)cc2)c2c1C(=O)c1ccccc1C2=O`, the 50% inhibitory concentration (IC50) in data set [1] stood at 0.34 µM; in data set [3], 18.2 µM; in data set [4], 1.5 µM; in data set [7] it was 3.1 µM. In addition, the selectivity ratio in data set [2] was 53.5; in data set [5], 12.1; in data set [6] it was 5.87.
As for `CC(C)Cn1c[n+](CC(=O)c2ccc(F)cc2)c2c1C(=O)c1ccccc1C2=O`, the IC50 turned out to be 0.75 µM in data set [1], 16.4 µM in data set [3], 0.2 µM in data set [4] and 0.41 µM in data set [7]. In addition, the selectivity ratio in data set [2] was 21.9; in data set [5], 82; in data set [6], 40.
`CCC(C)n1c[n+](CC(=O)c2ccc([N+](=O)[O-])cc2)c2c1C(=O)c1ccccc1C2=O` (centres undefined): the half-maximal inhibitory concentration (IC50) amounted to 8.9 µM in data set [1], 27.1 µM in data set [3], 1.8 µM in data set [4] and 8.4 µM in data set [7]. Moreover, the selectivity ratio stood at 3.04 in data set [2], 15.1 in data set [5] and 3.23 in data set [6].
With `Cn1c[n+](CC(=O)c2ccc(C(F)(F)F)cc2)c2c1C(=O)c1ccccc1C2=O`, the concentration for half-maximal inhibition (IC50) in data set [1] worked out at 7.4 µM; in data set [3] it was 19.3 µM; in data set [4] it was 1.3 µM; in data set [7] it was 9.2 µM. The values for the selectivity ratio in data set [2], in data set [5] and in data set [6] were 2.61, 14.9 and 2.1, respectively.
Consider `CC(C)Cn1c[n+](CC(=O)N(C)C)c2c1C(=O)c1ccccc1C2=O`, for which the IC50 amounted to 65.6 µM in data set [1], 58.8 µM in data set [3], 0.4 µM in data set [4] and 12.8 µM in data set [7]. The values for the selectivity ratio in data set [2], in data set [5] and in data set [6] were 0.9, 147 and 4.59, respectively.
`Cn1c[n+](CC(=O)c2cccs2)c2c1C(=O)c1ccccc1C2=O`: the 50% inhibitory concentration (IC50) in data set [1] stood at 0.94 µM; in data set [3] it was 22.9 µM; in data set [4] it was 0.3 µM; in data set [7], 7 µM. Also, the selectivity ratio in data set [2] is 24.4; in data set [5] it was 76.3; in data set [6], 3.27.
For `CC(C)Cn1c[n+](CC(=O)c2ccco2)c2c1C(=O)c1ccccc1C2=O`, the IC50 in data set [1] came to 0.32 µM; in data set [3] it was 8.5 µM; in data set [4] it was 0.37 µM; in data set [7], 0.6 µM. Further, the selectivity ratio was found to be 26.6 in data set [2], 23 in data set [5] and 14.2 in data set [6].
`Cn1c[n+](CC(=O)c2ccco2)c2c1C(=O)c1ccccc1C2=O`: the IC50 stood at 1.4 µM in data set [1], 13.6 µM in data set [3], 0.1 µM in data set [4] and 4.9 µM in data set [7]. The selectivity ratio in data set [2] came to 9.71; in data set [5], 136; in data set [6], 2.78.
`Cn1c[n+](CC(=O)C(C)(C)C)c2c1C(=O)c1ccccc1C2=O`: the IC50 amounted to 7.6 µM in data set [1], 27.4 µM in data set [3], 2.4 µM in data set [4] and 5.8 µM in data set [7]. For the same molecule, the selectivity ratio came to 3.61 in data set [2], 11.4 in data set [5] and 4.72 in data set [6].
Take `CC(C)c1cccc(C(C)C)c1-n1c[n+](CC(=O)c2ccc([N+](=O)[O-])cc2)c2c1C(=O)c1ccccc1C2=O`: the half-inhibitory concentration (IC50) in data set [1] was 47.9 µM; in data set [3] it was 46.5 µM; in data set [4], 26.7 µM; in data set [7] it was over 100 µM. Further, the selectivity ratio was 0.97 in data set [2], 1.74 in data set [5] and under 0.47 in data set [6].
On to `COc1ccc(C(=O)C[n+]2cn(CC(C)C)c3c2C(=O)c2ccccc2C3=O)cc1`, for which the IC50 was 0.31 µM in data set [1], 2.3 µM in data set [3], 0.19 µM in data set [4] and 0.08 µM in data set [7]. Besides, the selectivity ratio worked out at 7.42 in data set [2], 12.1 in data set [5] and 28.8 in data set [6].
Consider `Cc1cc(C)c(-n2c[n+](CC(=O)c3ccc([N+](=O)[O-])cc3)c3c2C(=O)c2ccccc2C3=O)c(C)c1`, for which the half-inhibitory concentration (IC50) in data set [1] was 12.3 µM; in data set [3], 24.5 µM; in data set [4], 6.6 µM; in data set [7], 41.7 µM. Also, the selectivity ratio stood at 1.99 in data set [2], 3.71 in data set [5] and 0.59 in data set [6].
Turning to `CC(C)Cn1c[n+](CC(=O)C(C)(C)C)c2c1C(=O)c1ccccc1C2=O`, the IC50 is 10.4 µM in data set [1], 10.4 µM in data set [3], 3.3 µM in data set [4] and 9.4 µM in data set [7]. Also, the selectivity ratio in data set [2] came out at 1; in data set [5], 3.15; in data set [6], 1.11.
Regarding `Cc1ccc(C(=O)C[n+]2cn(C)c3c2C(=O)c2ccccc2C3=O)cc1`, the IC50 was found to be 0.6 µM in data set [1], 14.7 µM in data set [3], 0.16 µM in data set [4] and 3.5 µM in data set [7]. The selectivity ratio was found to be 24.5 in data set [2], 91.9 in data set [5] and 4.2 in data set [6].
For `CN(C)C(=O)C[n+]1cn(C)c2c1C(=O)c1ccccc1C2=O`, the IC50 in data set [1] turned out to be 7.6 µM; in data set [3], 4.3 µM; in data set [4], 0.1 µM; in data set [7], 0.2 µM. Moreover, the selectivity ratio in data set [2] worked out at 0.57; in data set [5], 43; in data set [6] it was 21.5.
In the case of `Cn1c[n+](CC(=O)c2ccccc2[N+](=O)[O-])c2c1C(=O)c1ccccc1C2=O`, the IC50 is 18 µM in data set [1], 41.8 µM in data set [3], 0.5 µM in data set [4] and 8.7 µM in data set [7]. Moreover, the selectivity ratio in data set [2] was 2.32; in data set [5], 83.6; in data set [6], 4.8.
As to `CC(C)Cn1c[n+](CC(=O)c2ccccc2)c2c1C(=O)c1ccccc1C2=O`, the IC50 in data set [1] amounted to 0.52 µM; in data set [3], 2.7 µM; in data set [4] it was 0.32 µM; in data set [7], 0.9 µM. Besides, the selectivity ratio turned out to be 5.19 in data set [2], 8.44 in data set [5] and 3 in data set [6].
With `CC(C)Cn1c[n+](CC(=O)c2ccc3ccccc3c2)c2c1C(=O)c1ccccc1C2=O`, the IC50 amounted to 2.7 µM in data set [1], 17.7 µM in data set [3], 1.3 µM in data set [4] and 4.3 µM in data set [7]. In addition, the selectivity ratio in data set [2] came out at 6.56; in data set [5], 13.6; in data set [6], 4.12.
